From patent publication EP2155158B1, “PERSONAL LUBRICANT COMPOSITION” (LRC Products Limited, priority 2007, dated 2008) come the findings set out here.

Series [1] is described as follows: Cooling strength of coolants relative to menthol. Conditions: menthol = 100. From the text: N-ethyl-p-menthane-3-carboxamide has, to date, primarily been used in oral, medicinal and confectionary products, such as breath freshening chewing gums. […]
Series [2] is described as follows: Volatility compared with menthol. Format: physicochemical.
The nature of series [3]: Crystallisation / clouding at low temperatures. Format: physicochemical.

Like-named read-outs stand apart in the source and are kept apart here.

Consider `C=C(C)C1CCC(C)CC1O` (stereo not shown) [Isopulegol, 2-isopropenyl-5-methyl-cyclohexanol], for which the “Cooling strength relative to menthol” value in series [1] came out at 25. The same measure, in the same setting: in the case of `CC1CCC(C(C)C)C(OC(=O)C(C)O)C1` (stereo not shown) [Menthyl lactate] it was 43. Still for that read-out and setting: as for Menthone lactate, the figure is 41. `CC1CCC(C(C)C)C(O)C1` (stereo not shown) [Menthol]: the “loss of coolant on storage (reduction in the level of retained coolant)” value (personal lubricant formulation, 2190 h) is listed as “about 50%”. Moreover, the “Cooling strength relative to menthol” value in series [1] is listed as 100. Regarding `CCNC(=O)C1CC(C)CCC1C(C)C` (stereo not shown) [WS-3, N-ethyl-p-menthane-3-carboxamide], the volatility result in series [2] is “lower volatility than menthol”. Besides, the “loss of coolant on storage (reduction in the level of retained coolant)” value (in personal lubricant formulation, storage for 3 months at 40°C) is reported as “no loss”. Besides, in series [3], the “crystallisation at low temperatures” value is reported as “does not crystallise at low temperatures”. Moreover, the “Cooling strength relative to menthol” value in series [1] amounted to 150.

As for `CNC(=O)C(C)(C(C)C)C(C)C` [WS-23], the “Cooling strength relative to menthol” value in series [1] is 75.
